According to patent US20090247511A1, “SYNERGISTIC INSECTICIDE AND FUNGICIDE MIXTURES” (BAYER CROPSCIENCE AG, priority 2006, published 2009):

Assays:
Myzus persicae = Myzus persicae test (cabbage leaf dip, kill rate, Colby synergy); assay type: in vivo
[1] = system: Phaedon cochleariae larvae; assay: Phaedon cochleariae larvae test (cabbage leaf dip, kill rate, Colby synergy)

Cn1cc(C(=O)Nc2ccccc2C2CC2C2CC2)c(C(F)F)n1 (stereo not drawn) [Compound (I-4)]
0%: Kill in % after 1d (Myzus persicae; Table A1, 200 ppm) | Kill in % after 1d (Myzus persicae; Table A2, 200 ppm) | Kill in % after 4d ([1]; Table B1, 200 ppm) | Kill in % after 6d ([1]; Table B2, 200 ppm, after 6 d) | Kill in % after 4d ([1]; Table B3, 200 ppm) | Kill in % after 4d ([1]; Table B3, 400 ppm)
